Source: patent US11001586B2, “Alkyl pyrrolopyrimidine analogs and methods of making and using same” (The University of North Carolina at Chapel Hill, priority 2016, dated 2021)

Legend:
Mer tyrosine kinase = Mer tyrosine kinase (Homo sapiens (Human), UniProt Q12866); assay: Evaluation of activity against Mer tyrosine kinase; type: biochemical
Tyro3 tyrosine kinase = Tyro3 tyrosine kinase (Homo sapiens (Human), UniProt Q06418); assay: Evaluation of activity against Tyro3 tyrosine kinase; type: biochemical
Sequence of Tyro3 tyrosine kinase (Q06418 41-890): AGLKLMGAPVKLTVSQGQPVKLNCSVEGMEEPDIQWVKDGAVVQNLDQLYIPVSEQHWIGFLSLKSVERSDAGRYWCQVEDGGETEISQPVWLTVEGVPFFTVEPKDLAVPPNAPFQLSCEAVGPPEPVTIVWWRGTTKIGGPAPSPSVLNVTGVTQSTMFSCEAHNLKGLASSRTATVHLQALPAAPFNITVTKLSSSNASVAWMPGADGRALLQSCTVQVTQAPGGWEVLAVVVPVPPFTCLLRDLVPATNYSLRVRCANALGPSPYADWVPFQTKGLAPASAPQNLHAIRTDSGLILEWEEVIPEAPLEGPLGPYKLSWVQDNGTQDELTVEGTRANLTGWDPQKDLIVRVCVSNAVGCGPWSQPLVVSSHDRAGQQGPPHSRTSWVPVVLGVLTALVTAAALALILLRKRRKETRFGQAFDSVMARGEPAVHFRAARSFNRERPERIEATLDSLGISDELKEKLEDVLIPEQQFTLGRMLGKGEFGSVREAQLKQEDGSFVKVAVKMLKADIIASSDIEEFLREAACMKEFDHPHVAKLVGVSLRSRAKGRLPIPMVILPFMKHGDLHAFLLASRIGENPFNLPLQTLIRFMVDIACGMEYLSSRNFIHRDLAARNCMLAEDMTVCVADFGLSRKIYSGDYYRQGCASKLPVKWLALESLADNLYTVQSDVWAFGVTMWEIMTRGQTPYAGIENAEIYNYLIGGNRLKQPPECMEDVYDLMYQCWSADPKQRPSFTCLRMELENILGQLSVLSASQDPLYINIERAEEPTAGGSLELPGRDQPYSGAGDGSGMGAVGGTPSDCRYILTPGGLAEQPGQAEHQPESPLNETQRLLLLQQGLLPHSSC

Sequence of Mer tyrosine kinase (Q12866 21-999): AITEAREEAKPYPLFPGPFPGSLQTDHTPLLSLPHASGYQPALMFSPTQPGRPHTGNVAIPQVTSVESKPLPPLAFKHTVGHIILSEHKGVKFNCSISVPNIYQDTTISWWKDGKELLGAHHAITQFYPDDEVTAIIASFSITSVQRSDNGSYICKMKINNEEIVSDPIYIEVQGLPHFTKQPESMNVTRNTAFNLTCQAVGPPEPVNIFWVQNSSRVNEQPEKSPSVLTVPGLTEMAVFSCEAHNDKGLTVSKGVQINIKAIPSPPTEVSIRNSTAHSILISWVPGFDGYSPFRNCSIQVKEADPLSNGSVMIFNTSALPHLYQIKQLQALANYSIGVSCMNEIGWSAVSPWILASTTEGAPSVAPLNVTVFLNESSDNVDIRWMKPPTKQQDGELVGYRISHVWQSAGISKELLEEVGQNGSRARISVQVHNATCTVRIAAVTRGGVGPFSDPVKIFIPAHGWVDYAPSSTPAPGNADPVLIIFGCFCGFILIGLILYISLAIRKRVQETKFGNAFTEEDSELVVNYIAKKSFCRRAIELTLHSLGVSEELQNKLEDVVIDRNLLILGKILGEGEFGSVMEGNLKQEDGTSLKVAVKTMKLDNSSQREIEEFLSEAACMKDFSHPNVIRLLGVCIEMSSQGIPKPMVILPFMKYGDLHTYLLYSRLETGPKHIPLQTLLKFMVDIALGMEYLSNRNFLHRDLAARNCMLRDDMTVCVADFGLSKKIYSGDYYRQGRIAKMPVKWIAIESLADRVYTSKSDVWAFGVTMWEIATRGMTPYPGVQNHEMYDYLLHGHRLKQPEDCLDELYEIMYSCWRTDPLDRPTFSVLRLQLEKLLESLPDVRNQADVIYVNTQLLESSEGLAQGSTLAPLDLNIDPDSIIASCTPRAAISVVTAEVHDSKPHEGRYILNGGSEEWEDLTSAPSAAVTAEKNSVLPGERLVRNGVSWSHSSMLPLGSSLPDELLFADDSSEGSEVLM

Compound	IC50 (Mer tyrosine kinase)	IC50 (Tyro3 tyrosine kinase)
CCC[C@H](C)Nc1ncc2c(C3CCN(C(=O)c4ncc[nH]4)CC3)cn([C@H]3CC[C@H](O)CC3)c2n1 [compound 62, (4-(7-((1r,4S)-4-hydroxycyclohexyl)-2-(((S)-pentan-2-yl)amino)-7H-pyrrolo[2,3-d]pyrimidin-5-yl)piperidin-1-yl)(1H-imidazol-2-yl)methanone]	< 10 nM	100 to 1000 nM
CCC[C@H](C)Nc1ncc2c(C3CCN(C(=O)C4CN(C)C4)CC3)cn([C@H]3CC[C@H](O)CC3)c2n1 [compound 14, (4-(7-((1R,4S)-4-hydroxycyclohexyl)-2-(((S)-pentan-2-yl)amino)-7H-pyrrolo[2,3-d]pyrimidin-5-yl)piperidin-1-yl)(1-methylazetidin-3-yl)methanone]	< 10 nM	10 to 100 nM
CCC[C@H](C)Nc1ncc2c(C3CCN(C(=O)C4CCCN4C)CC3)cn([C@H]3CC[C@H](O)CC3)c2n1 (stereo partly drawn) [compound 16, 7-((1R,4S)-4-hydroxycyclohexyl)-5-(1-(methylprolyl)piperidin-4-yl)-2-(((S)-pentan-2-yl)amino)-7H-pyrrolo[2,3-d]pyrimidine]	< 10 nM	10 to 100 nM
CCC[C@H](C)Nc1ncc2c(C3CCN(C(=O)c4cncs4)CC3)cn([C@H]3CC[C@H](O)CC3)c2n1 [compound 59, (4-(7-((1R,4S)-4-hydroxycyclohexyl)-2-(((S)-pentan-2-yl)amino)-7H-pyrrolo[2,3-d]pyrimidin-5-yl)piperidin-1-yl)(thiazol-5-yl)methanone]	< 10 nM	10 to 100 nM
Cc1cc(C(=O)N2CCC(c3cn([C@H]4CC[C@H](O)CC4)c4nc(NCCC5CC5)ncc34)CC2)cc(C)n1 [compound 72, (4-(2-((2-cyclopropylethyl)amino)-7-((1R,4R)-4-hydroxycyclohexyl)-7H-pyrrolo[2,3-d]pyrimidin-5-yl)piperidin-1-yl)(2,6-dimethylpyridin-4-yl)methanone]	< 10 nM	100 to 1000 nM
CCC[C@H](C)Nc1ncc2c(C3CCN(C(=O)c4ccccc4OC)CC3)cn([C@H]3CC[C@H](O)CC3)c2n1 [compound 33, (4-(7-((1R,4S)-4-hydroxycyclohexyl)-2-(((S)-pentan-2-yl)amino)-7H-pyrrolo[2,3-d]pyrimidin-5-yl)piperidin-1-yl)(2-methoxyphenyl)methanone]	< 10 nM	100 to 1000 nM
CCC[C@H](C)Nc1ncc2c(C3CCN(C)C3)cn([C@H]3CC[C@H](O)CC3)c2n1 (stereo partly drawn) [compound 99, (1S,4R)-4-(5-(1-methylpyrrolidin-3-yl)-2-(((S)-pentan-2-yl)amino)-7H-pyrrolo[2,3-d]pyrimidin-7-yl)cyclohexan-1-ol]	< 10 nM	100 to 1000 nM
CCC[C@H](C)Nc1ncc2c(C3CCN(C(=O)c4cc(C)nc(C)c4)CC3)cn([C@H]3CC[C@H](N)CC3)c2n1 [compound 95, (4-(7-((1R,4S)-4-aminocyclohexyl)-2-(((S)-pentan-2-yl)amino)-7H-pyrrolo[2,3-d]pyrimidin-5-yl)piperidin-1-yl)(2,6-dimethylpyridin-4-yl)methanone]	< 10 nM	10 to 100 nM
CCC[C@H](C)Nc1ncc2c(C3CCN(C(=O)c4ccc(F)cc4)CC3)cn([C@H]3CC[C@H](O)CC3)c2n1 [compound 89, (4-fluorophenyl)(4-(7-((1R,4S)-4-hydroxycyclohexyl)-2-(((S)-pentan-2-yl)amino)-7H-pyrrolo[2,3-d]pyrimidin-5-yl)piperidin-1-yl)methanone]	< 10 nM	100 to 1000 nM
CC[C@@H]1C[C@H]1Nc1ncc2c(C3CCN(C(=O)c4ccncc4)CC3)cn([C@H]3CC[C@H](O)CC3)c2n1 [compound 43, (4-(2-(((1R,2R)-2-ethylcyclopropyl)amino)-7-((1R,4R)-4-hydroxycyclohexyl)-7H-pyrrolo[2,3-d]pyrimidin-5-yl)piperidin-1-yl)(pyridin-4-yl)methanone]	< 10 nM	100 to 1000 nM
CCC[C@H](C)Nc1ncc2c(C3CCN(C(=O)c4nccs4)CC3)cn([C@H]3CC[C@H](O)CC3)c2n1 [compound 57, (4-(7-((1R,4S)-4-hydroxycyclohexyl)-2-(((S)-pentan-2-yl)amino)-7H-pyrrolo[2,3-d]pyrimidin-5-yl)piperidin-1-yl)(thiazol-2-yl)methanone]	< 10 nM	100 to 1000 nM
CCC[C@H](C)Nc1ncc2c(C3CCN(C(=O)C4CCN(C)C4)CC3)cn([C@H]3CC[C@H](O)CC3)c2n1 (stereo partly drawn) [compound 18, (4-(7-((1R,4S)-4-hydroxycyclohexyl)-2-(((S)-pentan-2-yl)amino)-7H-pyrrolo[2,3-d]pyrimidin-5-yl)piperidin-1-yl)(1-methylpyrrolidin-3-yl)methanone]	< 10 nM	10 to 100 nM
CCC[C@H](C)Nc1ncc2c(C3CCN(C(=O)[C@@H]4CCCNC4)CC3)cn([C@H]3CC[C@H](O)CC3)c2n1 [compound 23, (4-(7-((1R,4S)-4-hydroxycyclohexyl)-2-(((S)-pentan-2-yl)amino)-7H-pyrrolo[2,3-d]pyrimidin-5-yl)piperidin-1-yl)((R)-piperidin-3-yl)methanone]	< 10 nM	10 to 100 nM
CCCCNc1ncc2c(C3CC4CCC(C3)N4)cn([C@H]3CC[C@H](O)CC3)c2n1 (stereo partly drawn) [compound 12, (1R,4R)-4-(5-((1R,3S,5S)-8-azabicyclo[3.2.1]octan-3-yl)-2-(butylamino)-7H-pyrrolo[2,3-d]pyrimidin-7-yl)cyclohexan-1-ol]		1000 to 30000 nM

Further lines, results first:

IC50 (Mer tyrosine kinase)	IC50 (Tyro3 tyrosine kinase)	Compound
< 10 nM	100 to 1000 nM	CCC[C@H](C)Nc1ncc2c(C3CCN(C(=O)c4cccc(OC)c4)CC3)cn([C@H]3CC[C@H](O)CC3)c2n1 [compound 32, (4-(7-((1R,4S)-4-hydroxycyclohexyl)-2-(((S)-pentan-2-yl)amino)-7H-pyrrolo[2,3-d]pyrimidin-5-yl)piperidin-1-yl)(3-methoxyphenyl)methanone]
< 10 nM	100 to 1000 nM	CCC[C@H](C)Nc1ncc2c(C3CCN(C(=O)c4ccc(OC)cc4)CC3)cn([C@H]3CC[C@H](O)CC3)c2n1 [compound 31, (4-(7-((1R,4S)-4-hydroxycyclohexyl)-2-(((S)-pentan-2-yl)amino)-7H-pyrrolo[2,3-d]pyrimidin-5-yl)piperidin-1-yl)(4-methoxyphenyl)methanone]
< 10 nM	100 to 1000 nM	CCC[C@H](C)Nc1ncc2c(C3CCN(C(=O)CCOC)CC3)cn([C@H]3CC[C@H](O)CC3)c2n1 [compound 9, 1-(4-(7-((1R,4S)-4-hydroxycyclohexyl)-2-(((S)-pentan-2-yl)amino)-7H-pyrrolo[2,3-d]pyrimidin-5-yl)piperidin-1-yl)-3-methoxypropan-1-one]
< 10 nM	10 to 100 nM	CCC[C@H](C)Nc1ncc2c(C3CCN(C(=O)C4CCCN4)CC3)cn([C@H]3CC[C@H](O)CC3)c2n1 (stereo partly drawn) [compound 15, 7-((1R,4S)-4-hydroxycyclohexyl)-2-(((S)-pentan-2-yl)amino)-5-(1-prolylpiperidin-4-yl)-7H-pyrrolo[2,3-d]pyrimidine]
< 10 nM	100 to 1000 nM	CCC[C@H](C)Nc1ncc2c(C3CCN(C(=O)c4cc(OC)cc(OC)c4)CC3)cn([C@H]3CC[C@H](O)CC3)c2n1 [compound 80, (3,5-dimethoxyphenyl)(4-(7-((1R,4S)-4-hydroxycyclohexyl)-2-(((S)-pentan-2-yl)amino)-7H-pyrrolo[2,3-d]pyrimidin-5-yl)piperidin-1-yl)methanone]
< 10 nM	100 to 1000 nM	CCC[C@H](C)Nc1ncc2c(C3CCN(C(=O)c4ccc(Cl)cc4)CC3)cn([C@H]3CC[C@H](O)CC3)c2n1 [compound 84, (4-chlorophenyl)(4-(7-((1R,4S)-4-hydroxycyclohexyl)-2-(((S)-pentan-2-yl)amino)-7H-pyrrolo[2,3-d]pyrimidin-5-yl)piperidin-1-yl)methanone]
< 10 nM	100 to 1000 nM	CCC[C@H](C)Nc1ncc2c(C3CCN(C(=O)c4ccc(N)cc4)CC3)cn([C@H]3CC[C@H](O)CC3)c2n1 [compound 82, (4-aminophenyl)(4-(7-((1R,4S)-4-hydroxycyclohexyl)-2-(((S)-pentan-2-yl)amino)-7H-pyrrolo[2,3-d]pyrimidin-5-yl)piperidin-1-yl)methanone]
< 10 nM	100 to 1000 nM	C[C@H](Nc1ncc2c(C3CCN(CC4CCCCC4)CC3)cn([C@H]3CC[C@H](O)CC3)c2n1)c1ccccc1 [compound 92, (1S,4R)-4-(5-(1-(cyclohexylmethyl)piperidin-4-yl)-2-(((S)-1-phenylethyl)amino)-7H-pyrrolo[2,3-d]pyrimidin-7-yl)cyclohexan-1-ol]
< 10 nM	100 to 1000 nM	CCC[C@H](C)Nc1ncc2c(C3CCN(C(=O)c4cc[nH]c4)CC3)cn([C@H]3CC[C@H](O)CC3)c2n1 [compound 61, (4-(7-((1R,4S)-4-hydroxycyclohexyl)-2-(((S)-pentan-2-yl)amino)-7H-pyrrolo[2,3-d]pyrimidin-5-yl)piperidin-1-yl)(1H-pyrrol-3-yl)methanone]
< 10 nM	1000 to 30000 nM	Cc1cc(C(=O)N2CCC(c3cn([C@H]4CC[C@H](O)CC4)c4nc(NCCCC(F)(F)F)ncc34)CC2)cc(C)n1 [compound 101, (2,6-dimethylpyridin-4-yl)(4-(7-((1r,4r)-4-hydroxycyclohexyl)-2-((4,4,4-trifluorobutyl)amino)-7H-pyrrolo[2,3-d]pyrimidin-5-yl)piperidin-1-yl)methanone]
< 10 nM	10 to 100 nM	CCC[C@H](C)Nc1ncc2c(C3CCN(C(=O)c4ccccc4)CC3)cn([C@H]3CC[C@H](O)CC3)c2n1 [compound 30, (4-(7-((1R,4S)-4-hydroxycyclohexyl)-2-(((S)-pentan-2-yl)amino)-7H-pyrrolo[2,3-d]pyrimidin-5-yl)piperidin-1-yl)(phenyl)methanone]
< 10 nM	10 to 100 nM	Cc1cc(C(=O)N2CCC(c3cn([C@H]4CC[C@H](O)CC4)c4nc(N[C@@H](C)c5ccc(F)cc5)ncc34)CC2)cc(C)n1 [compound 75, (2,6-dimethylpyridin-4-yl)(4-(2-(((S)-1-(4-fluorophenyl)ethyl)amino)-7-((1R,4S)-4-hydroxycyclohexyl)-7H-pyrrolo[2,3-d]pyrimidin-5-yl)piperidin-1-yl)methanone]
< 10 nM	10 to 100 nM	CCC[C@H](C)Nc1ncc2c(C3CCN(C(=O)c4cc(C)nc(C)c4)CC3)cn([C@H]3CC[C@H](CO)CC3)c2n1 [compound 86]
